Laboratory results from paper PMC12005787, “Synthetic Lethality of SHP2 and XIAP Suppresses Proliferation and Metastasis in KRAS‐mutant Nonsmall Cell Lung Cancer” (Advanced Science, 2025).

What was measured:
[1] = target: T1, His‐ΔSHP2 (Homo sapiens, UniProt Q06124); assay: Reversibility of embelin-SHP2 binding (dialysis); format: biochemical
T1 construct: His‐ΔSHP2, encompassing the peptide from amino acids 205–593 retaining PTP activity; His; made in house; host or cells: E. coli
T1 sequence (Q06124 205-593): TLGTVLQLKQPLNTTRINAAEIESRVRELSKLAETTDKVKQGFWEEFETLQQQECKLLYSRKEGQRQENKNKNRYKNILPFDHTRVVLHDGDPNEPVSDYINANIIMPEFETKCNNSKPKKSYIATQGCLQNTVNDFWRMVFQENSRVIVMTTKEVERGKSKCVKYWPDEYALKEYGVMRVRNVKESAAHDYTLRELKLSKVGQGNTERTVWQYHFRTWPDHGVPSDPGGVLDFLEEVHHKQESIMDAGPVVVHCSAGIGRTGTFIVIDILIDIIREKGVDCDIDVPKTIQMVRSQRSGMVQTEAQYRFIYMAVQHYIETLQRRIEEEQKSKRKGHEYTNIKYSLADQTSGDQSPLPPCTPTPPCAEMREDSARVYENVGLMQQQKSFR
Procedure: To test whether embelin and SHP2 were reversibly bound, the purified His‐ΔSHP2 fusion protein was dialyzed overnight in dialysis buffer (10 mM HEPES, 0.5 M NaCl, 1 mM TCEP, and 10% glycerol, pH 7.5), and the protein activity was detected by DiFMUP. After incubating embelin with dialyzed protein at 37 °C for 30 min, the mixed solution was dialyzed overnight or ultrafiltered, with DMSO as a control, and protein activity was detected by DiFMUP to determine the mode of protein‐compound binding.

[2] = target: T2, His‐SHP2 (full‐length) (Homo sapiens, UniProt Q06124); assay: Full-length SHP2 activity activated by bis-phosphorylated Gab1 peptide; format: biochemical
T2 construct: His; made in house; host or cells: E. coli
Procedure: For detection of SHP2 allosteric regulation by the compounds, the soluble fusion His‐SHP2 protein was cloned, expressed, and purified by constructing a pET28a‐PTPN11 recombinant plasmid in E. coli. Subsequently, 148 nM His‐SHP2 protein with 14.8 µM peptide (bis‐phosphorylated peptide from Gab1, with the sequence of: H2N‐VE(pY)LDLDLD(PEG8)RVD‐(pY)VVVDQQ‐amide) was mixed thoroughly in reaction buffer and incubated for 30 min at 37 °C in the dark. The fluorescence intensity was detected by DiFMUP after addition of different drugs and incubation at 37 °C for 30 min, with SHP099 and Na3VO4 as positive controls and unactivated protein as negative controls.

[3] = system: KRAS‐mutant NSCLC cells in 3D culture; assay: Cell proliferation in 3D cell culture (ATP chemiluminescence); format: cell-based
Procedure: supplies are listed in Supplementary Table S5. […]
For the adherent cell viability assay, cells in the logarithmic growth phase were seeded in 96-well culture plates at a density of 5×103 well-1 and incubated overnight. Diluted compounds or DMSO were added, or specific treatments were incubated at 37 °C and 5% CO2 for 24 h or 48 h. Cell viability was determined using CCK-8 or CellLightTM Cell Viability Assay Kit, according to the manufacturer's protocol. The luminescence signals of the treated samples were normalized to those of the DMSO group.
For spherical cell viability assays, cells in the logarithmic growth phase were inoculated ata density of 4×10^3 well-1 into 96-well spherical cell microplates and incubated at 37 °C, 5% CO2 for 24 h or 48 h. Cell viability was measured using the CellTiter-Glo® Luminescent Cell Viability 3D Cell Viability Assay Kit, according to the manufacturer’s protocol. The remaining steps were the same as those described above. […]
Figure S7. Targeting SHP2 and XIAP produces a synthetic lethal effect. (A) Effects of NSC-87877 on cell viability of A549 and NCI-H2122 cells after 24 and 48 h were determined using the CCK-8. Bars, ± SEM. […]
tailed Student’s t-test).(K) Effects of SHP099 and GDC-0152 separately and in combination with […] on the cell viability of human KRAS-WT and -mutant cells were assessed using a colony formation assay. […]

T2 sequence (Q06124 whole entry): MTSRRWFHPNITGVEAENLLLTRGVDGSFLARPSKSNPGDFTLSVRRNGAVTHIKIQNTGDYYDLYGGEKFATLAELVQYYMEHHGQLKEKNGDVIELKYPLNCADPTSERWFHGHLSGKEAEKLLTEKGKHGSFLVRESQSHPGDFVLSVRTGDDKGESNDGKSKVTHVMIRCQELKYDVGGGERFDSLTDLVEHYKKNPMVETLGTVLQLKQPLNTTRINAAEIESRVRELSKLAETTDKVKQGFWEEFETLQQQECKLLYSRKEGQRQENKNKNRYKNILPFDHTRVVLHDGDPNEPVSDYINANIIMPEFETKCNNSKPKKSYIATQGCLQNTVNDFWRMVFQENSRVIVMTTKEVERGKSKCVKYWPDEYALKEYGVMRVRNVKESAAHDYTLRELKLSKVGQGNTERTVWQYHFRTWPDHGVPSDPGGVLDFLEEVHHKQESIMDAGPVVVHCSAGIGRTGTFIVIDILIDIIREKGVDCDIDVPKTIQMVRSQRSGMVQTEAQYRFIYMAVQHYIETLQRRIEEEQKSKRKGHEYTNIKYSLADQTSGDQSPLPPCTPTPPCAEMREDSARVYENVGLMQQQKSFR

SMILES | mode of binding to SHP2 (dialysis) [1] | effect on SHP2 full‐length activity allosterically activated by bis‐phosphorylated Gab1 peptide [2] | effect on cell proliferation in 3D cell culture [3]
CCCCCCCCCCCC1=C(O)C(=O)C=C(O)C1=O [Embelin] | noncovalent | no effect | –
CC1(N)CCN(c2cnc(-c3cccc(Cl)c3Cl)c(N)n2)CC1 [SHP099] | – | – | partially inhibited cell proliferation
